According to ChEMBL document CHEMBL5230122, “Natural products and other inhibitors of F1FO ATP synthase” (Eur J Med Chem, 2020):

Legend:
[1] = test system: PC-12; test: Cytoprotective activity against KCN induced-toxicity in rat PC-12 cells assessed as reduction in cell death for 24 hrs by MTT assay; assay type: functional, cell-based; conditions: PC-12, 24 h
[2] = species: Rattus norvegicus; test: Inhibition of rat liver mitochondrial F0F1-ATP synthase hydrolytic activity at 5 uM in presence of MgATP; conditions: Mitochondria
[3] = test system: PC-12; test: Cytoprotective activity against glutamate induced-toxicity in rat PC-12 cells assessed as reduction in cell death for 24 hrs by MTT assay; assay type: functional, cell-based; conditions: PC-12, 24 h
[4] = Anticancer activity against rat E1A-3Y1-1 cells assessed as reduction in cell viability incubated for 72 hrs by MTT assay; assay type: functional, cell-based; conditions: E1A-3Y1-1, 72 h
[5] = test system: HeLa S3; test: Anticancer activity against human HeLa S3 cells assessed as reduction in cell viability incubated for 48 hrs by WST-8 assay; assay type: functional, cell-based; conditions: HeLa S3, 48 h
[6] = Anticancer activity against rat Ad12-3Y1-Z13 cells assessed as reduction in cell viability incubated for 72 hrs by MTT assay; assay type: functional, cell-based; conditions: Ad12-3Y1-Z13, 72 h
[7] = Anticancer activity against rat E1A-3Y1-3 cells assessed as reduction in cell viability incubated for 72 hrs by MTT assay; assay type: functional, cell-based; conditions: E1A-3Y1-3, 72 h
[8] = Anticancer activity against rat Ad12-3Y1-W5 cells assessed as reduction in cell viability incubated for 72 hrs by MTT assay; assay type: functional, cell-based; conditions: Ad12-3Y1-W5, 72 h
[9] = Anticancer activity against rat E1A-3Y1-2 cells assessed as reduction in cell viability incubated for 72 hrs by MTT assay; assay type: functional, cell-based; conditions: E1A-3Y1-2, 72 h
[10] = Anticancer activity against rat Ad12-3Y1-Z11 cells assessed as reduction in cell viability incubated for 72 hrs by MTT assay; assay type: functional, cell-based; conditions: Ad12-3Y1-Z11, 72 h
[11] = Anticancer activity against rat Ad12-3Y1-Z19 cells assessed as reduction in cell viability incubated for 72 hrs by MTT assay; assay type: functional, cell-based; conditions: Ad12-3Y1-Z19, 72 h
[12] = Non-competitive inhibition of bovine heart mitochondrial F0F1-ATP synthase incubated for 25 mins by ATPase assay; assay type: mitochondria, Bos taurus, Mitochondria
[13] = test system: SW480; test: Anticancer activity against human SW480 cells assessed as reduction in cell viability incubated for 72 hrs by CellTiter-Glo luminescent cell viability assay; assay type: functional, cell-based; conditions: SW480, 72 h
[14] = test system: Jurkat; test: Anticancer activity against human Jurkat cells assessed as reduction in cell viability incubated for 72 hrs by CellTiter-Glo luminescent cell viability assay; assay type: functional, cell-based
[15] = test system: SK-OV-3; test: Anticancer activity against human SK-OV-3 cells assessed as reduction in cell viability incubated for 72 hrs by CellTiter-Glo luminescent cell viability assay; assay type: functional, cell-based; conditions: SK-OV-3, 72 h
[16] = test system: HCT-116; test: Anticancer activity against human HCT-116 cells assessed as reduction in cell viability incubated for 72 hrs by CellTiter-Glo luminescent cell viability assay; assay type: functional, cell-based; conditions: HCT-116, 72 h
[17] = test system: NCI-H1299; test: Anticancer activity against human NCI-H1299 cells assessed as reduction in cell viability incubated for 72 hrs by CCK-8 assay; assay type: functional, cell-based; conditions: NCI-H1299, 72 h
[18] = test system: U-937; test: Anticancer activity against human U-937 cells assessed as reduction in cell viability incubated for 72 hrs by CellTiter-Glo luminescent cell viability assay; assay type: functional, cell-based; conditions: U-937, 72 h
[19] = test system: MCF7; test: Anticancer activity against human MCF7 cells assessed as reduction in cell viability incubated for 72 hrs by CCK-8 assay; assay type: functional, cell-based; conditions: MCF7, 72 h
[20] = test system: LoVo; test: Anticancer activity against human LoVo cells assessed as reduction in cell viability incubated for 72 hrs by CCK-8 assay; assay type: functional, cell-based
[21] = test system: HL-60; test: Anticancer activity against human HL-60 cells assessed as reduction in cell viability incubated for 72 hrs by CCK-8 assay; assay type: functional, cell-based; conditions: HL-60, 72 h
[22] = test system: KB 3-1; test: Anticancer activity against human KB-3-1 cells assessed as reduction in cell viability incubated for 72 hrs by CellTiter-Glo luminescent cell viability assay; assay type: functional, cell-based; conditions: KB 3-1, 72 h
[23] = test system: HCT-116; test: Antitumor activity against human HCT-116 cells assessed as reduction in cell viability incubated for 48 hrs by MTT assay; assay type: functional, cell-based; conditions: HCT-116, 48 h
[24] = test system: MCF7; test: Antitumor activity against human MCF7 cells assessed as reduction in cell viability incubated for 48 hrs by MTT assay; assay type: functional, cell-based; conditions: MCF7, 48 h
[25] = Antitumor activity against mouse RIL-175 cells assessed as reduction in cell viability incubated for 48 hrs by MTT assay; assay type: functional, cell-based; conditions: RIL-175, 48 h
[26] = test system: Huh-7; test: Antitumor activity against human Huh-7 cells assessed as reduction in cell viability incubated for 48 hrs by MTT assay; assay type: functional, cell-based; conditions: Huh-7, 48 h
[27] = test system: A549; test: Antitumor activity against human A549 cells assessed as reduction in cell viability incubated for 48 hrs by MTT assay; assay type: functional, cell-based; conditions: A549, 48 h
[28] = test system: Cortical neurone; test: Neuroprotective activity against rat Primary cortical neuron cells assessed as rescue of cell death incubated for 2 days by fluorescent live-dead assay; assay type: functional, cell-based; conditions: 48 h
[29] = Neuroprotective activity against amyloid beta induced cell death in rat Primary hippocampal neuron cells assessed as increase in cell viability incubated for 2 days by lactate dehydrogenase release assay; assay type: functional, cell-based; conditions: Hippocampal neurone, 48 h
[30] = Binding affinity to mitochondrial ATP5A in mouse HT-22 cells measured after 15 mins by LC/MS/MS based pull-down assay; assay type: cell-based
[31] = test system: CL1-0; test: Antiproliferative activity against human CL1-0 cells assessed as reduction in cell proliferation incubated for 48 hrs by xCELLigence RTCA system analysis; assay type: functional, cell-based; conditions: CL1-0, 48 h
[32] = test system: A549; test: Antiproliferative activity against human A549 cells assessed as reduction in cell proliferation incubated for 48 hrs by xCELLigence RTCA system analysis; assay type: functional, cell-based; conditions: A549, 48 h
[33] = test system: SK-OV-3; test: Cytotoxicity against human SK-OV-3 cells assessed as reduction in cell viability incubated for 72 hrs by WST-8 assay; assay type: functional, cell-based; conditions: SK-OV-3, 72 h
[34] = Cytotoxicity against human ACC-MESO-1 cells assessed as reduction in cell viability incubated for 72 hrs by WST-8 assay; assay type: functional, cell-based; conditions: ACC-MESO-1, 72 h
[35] = test system: Jurkat; test: Cytotoxicity against human Jurkat cells assessed as reduction in cell viability incubated for 72 hrs by WST-8 assay; assay type: functional, cell-based
[36] = Inhibition of bovine heart mitochondria ATP synthase in presence of PEP, PK, LDH and NADH for 1 hrs by MitoTox microplate assay; design: species or system Bos taurus
[37] = test system: HepG2; test: Cytotoxicity against human HepG2 cells assessed as reduction in glucose induced mitochondrial toxicity by measuring ATP depletion incubated for 24 hrs by CellTiter-Glo luminescent cell viability assay; assay type: functional, cell-based; conditions: HepG2, 24 h
[38] = Inhibition of bovine heart mitochondrial F0F1-ATP synthase for 1 hr by microplate reader analysis; assay type: mitochondria, Bos taurus, Mitochondria
[39] = Inhibition of thrombin-induced hyperpermeability of human HMEC-1 cells at 10 uM preincubated for 20 mins followed by thrombin addition and measured for 60 mins by transwell assay; assay type: functional; conditions: HMEC-1, 1.333 h, time 80 min
[40] = Inhibition of bovine heart mitochondrial F0F1-ATP synthase assessed as reduction in NADH oxidation for 40 mins by MitoTox Complex V OXPHOS activity microplate assay; assay type: mitochondria, Bos taurus, Mitochondria
[41] = test system: T47D; test: Antiproliferative activity against human T47D assessed as inhibition of cell viability incubated for 72 hrs by CCK-8 assay; assay type: functional, cell-based
[42] = test system: MCF7; test: Antiproliferative activity against human MCF7 assessed as inhibition of cell viability incubated for 72 hrs by CCK-8 assay; assay type: functional, cell-based; conditions: MCF7, 72 h
[43] = test system: CAKI-1; test: Antiproliferative activity against human CAKI-1 cells assessed as reduction in cell proliferation incubated for 96 hrs by Cell TiterGlo assay; assay type: functional, cell-based; conditions: CAKI-1, 96 h

SMILES: CCOC(=O)C1=C(C)NC2=C(C=Nc3ccccc3N2)[C@@H]1c1ccccc1[N+](=O)[O-]
- IC50 [1]: 8 nM
- inhibition [2]: 67%
- IC50 [3]: 29 nM

SMILES: CC[C@H](C)[C@@H]1NC(=O)[C@H](NC(=O)[C@H](C)NC(=S)[C@H](C)NC(=S)[C@H](C)NC(=S)[C@H](C)NC(=S)[C@H](CCSC)NC(=S)[C@@H](NC(=O)C(C)=O)C(C)C)CS/C=C\NC(=O)[C@H](C(O)c2cn(C)c[n+]2C)NC(=O)[C@H](CC(C)C)NC(=O)[C@H](C)NC1=O (stereo partly drawn)
- IC50 [4]: 21 nM
- IC50 [5]: 360 nM
- IC50 [6]: 16 nM
- IC50 [7]: 21 nM
- IC50 [8]: 16 nM
- IC50 [9]: 21 nM
- IC50 [10]: 16 nM
- IC50 [11]: 16 nM

SMILES: NCCc1ccc(Oc2ccc(O)cc2)c(I)c1
- IC50 [12]: 27500 nM

SMILES: CC(=O)C(=O)N[C@H](C(=S)N[C@@H](CC[S+](C)[O-])C(=S)N[C@@H](C)C(=O)N[C@@H](C)C(=S)N[C@@H](C)C(=S)N[C@@H](C)C(=O)N[C@H]1C(=O)N[C@@H](C(C)C)C(=O)N[C@@H](C)C(=O)N[C@@H](Cc2ccccc2)C(=O)N[C@@H](C(O)c2cn(C)c[n+]2C)C(=O)N/C=C\SC1C)C(C)C (stereo partly drawn)
- IC50 [13]: 12200 nM
- IC50 [14]: 5280 nM
- IC50 [15]: 20900 nM
- IC50 [16]: 510 nM
- IC50 [17]: 5020 nM
- IC50 [18]: 16900 nM
- IC50 [19]: 830 nM
- IC50 [20]: 1180 nM
- IC50 [21]: 1470 nM
- IC50 [22]: 4490 nM

SMILES: CSCC[C@H](NC(=S)[C@@H](NC(=O)C(C)=O)C(C)C)C(=S)N[C@@H](C)C(=O)N[C@@H](C)C(=S)N[C@@H](C)C(=S)N[C@@H](C)C(=O)N[C@H]1C(=O)N[C@@H](C(C)C)C(=O)N[C@@H](C)C(=O)N[C@@H](Cc2ccccc2)C(=O)N[C@@H](C(O)c2cn(C)c[n+]2C)C(=O)N/C=C\SC1C (stereo partly drawn)
- IC50 [23]: 176 nM
- IC50 [24]: 480 nM
- IC50 [25]: 157 nM
- IC50 [26]: 141 nM
- IC50 [27]: 1160 nM

SMILES: COc1cccc(/C=N/N(C(=O)C(F)(F)F)c2ccc(C)cc2C)c1 [J147]
- EC50 [28]: 25 nM
- EC50 [29]: 200 nM
- EC50 [30]: 20 nM

SMILES: COc1cc(=O)oc(/C=C/C=C/C=C/C(C)=C/[C@]2(C)O[C@H](C)[C@](C)(O)[C@H]2O)c1C
- IC50 [31]: 1500 nM
- IC50 [32]: 1500 nM

SMILES: CC[C@H](C)[C@@H]1NC(=O)[C@H](NC(=O)[C@H](C)NC(=S)[C@H](C)NC(=S)[C@H](C)NC(=S)[C@H](C)NC(=S)[C@H](CCSC)NC(=S)[C@@H](NC(=O)C(C)O)C(C)C)CS/C=C\NC(=O)[C@H]([C@@H](O)c2cn(C)c[n+]2C)NC(=O)[C@H](CC(C)C)NC(=O)[C@H](C)NC1=O (stereo partly drawn)
- IC50 [33]: 10800 nM
- IC50 [34]: 14300 nM
- IC50 [35]: 5400 nM

SMILES: CNC(=O)c1cc(Oc2ccc(NC(=O)Nc3ccc(Cl)c(C(F)(F)F)c3)cc2)ccn1 [SORAFENIB]
- IC50 [36]: 2500 nM

SMILES: Cc1oncc1C(=O)Nc1ccc(C(F)(F)F)cc1 [LEFLUNOMIDE]
- IC50 [37]: 110000 nM
- IC50 [38]: 35000 nM

SMILES: C=C1CC[C@@]2(OC1)O[C@H]1C[C@H]3[C@@H]4CC=C5C[C@H](O)C[C@H](O[C@@H]6OC[C@H](O)[C@H](O)[C@H]6O[C@@H]6O[C@@H](C)[C@H](O)[C@@H](O)[C@H]6O)[C@]5(C)[C@H]4CC[C@]3(C)[C@H]1[C@@H]2C
- inhibition at 10 µM [39]: 41.9%
- Ki [40]: 10000 nM

SMILES: CCC(C)N(C)C(=O)c1cc2ccccc2c(-c2ccccc2Cl)n1 (stereo not drawn) [PK-11195]
- IC50 [41]: 6 nM
- IC50 [42]: 5.4 nM

SMILES: Nc1ncnc2c1nc(Cl)n2[C@@H]1O[C@H](CO)[C@@H](O)[C@H]1O [8-CHLOROADENOSINE]
- IC50 [43]: 2000 nM
